# Active and inactive are the calls of the source.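 How the source made its calls: active means fitted curve reaching 40% activation at or below the top valid dose tested; inconclusive means flat curve at 30 to 70% activation, or poor fit; inactive means the rest.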
# Tested on: SK-MEL-5 TRPM1 promoter luciferase reporter, 24 h
# Experiment: activation of TRPM1 promoter luciferase in melanoma cells – SK-MEL-5 cells, cherry-pick samples, dose response (AID 540258);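 further: potency for activators that raise TRPM1 promoter luciferase signal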
row,Structure (SMILES),AC40
1,CN(C(=O)c1cc(-c2ccccc2)on1)C1CCCCC1,1.12 µM
2,COc1cccc2sc3ccc(C#CC4(O)CCCCC4)cc3c(=O)c12,2.94 µM
3,COc1cccc(Nc2ccc(N3CCCCC3)cc2)c1OC,1.48 µM
4,COc1ccc(-c2csc(N(C)C(=O)c3cccs3)n2)cc1,6.73 µM
5,Nc1c(C(=O)C2CC2)sc2nc3c(cc12)CCC3,1.92 µM
6,COc1ccc(C(=O)Nc2cc3c4c(c2)CC(=O)N4CCC3)c(OC)c1,6.24 µM
7,COc1cccc(NC(=O)c2csc3c2CCCC3)c1,4.8 µM
8,O=c1nc2sc3ccccc3n2c(=O)n1-c1ccc(Cl)cc1,3.48 µM
9,CCc1ccc(NC(=O)c2n[nH]c(=O)c3ccccc23)cc1,1.1 µM
10,COc1cccc(NC(=O)Nc2ccc3c(c2)nnn3C)c1,4.88 µM
11,COc1ccc(/C=C/c2nc3ccccc3n2Cc2ccc(OC)c(OC)c2)cc1,1.93 µM
12,Cc1ccc(C(=O)NCCc2ccc(F)cc2)s1,0.245 µM
13,COc1ccc(/C(C)=N/Nc2nncc3ccccc23)cc1,0.58 µM
14,Cc1ccc(NCC(=O)c2ccc(C)cc2)cc1,9.65 µM
15,CCCn1nnc2sc3c(c2c1=O)CCC(C)C3 (centres undefined),3.32 µM
16,Fc1ccccc1CSc1nnc(-c2ccccc2)o1,0.935 µM
17,CC1CCN(C(=O)c2cc(-c3ccccc3O)on2)CC1,0.383 µM
18,O=C(CNc1cccc(F)c1)N1CCc2ccccc2C1,4.43 µM
19,COc1ccc(NC(=O)c2ccc3c(c2)OCO3)cc1Cl,0.642 µM
20,COc1ccccc1C(=O)NCC(=O)Nc1ccc2c(c1)CCC2,2.42 µM
21,O=C(Nc1ccc(O)cc1)c1c(O)c2c([nH]c1=O)CCCC2,0.664 µM
22,Cc1nn(-c2ccc(N3CCCCC3)nn2)c(C)c1CCC(=O)Nc1cccc(F)c1,3.23 µM

row,Structure (SMILES),AC40
1,c1ccc(-n2nnc(-c3cccnc3)n2)cc1,8.4 µM
2,c1ccc2cc(C3CCCCC3)ncc2c1,29.4 µM
3,Fc1ccccc1COc1ccc(C(=S)N2CCCC2)cc1,4.34 µM
4,CN(C)c1ccnc2sc3c(SCc4ccc(Cl)cc4)ncnc3c12,4.29 µM
5,COc1ccc(C(=O)NN/C(=N/S(=O)(=O)c2ccc(C)cc2)c2ccccc2)cc1,1.48 µM
6,COc1cccc(C(=O)Nc2nnc(-c3ccccc3)s2)c1,3.57 µM
7,CCCCNc1ccc2c(c1)C1CC2CCN1C(=O)OCc1ccccc1 (centres undefined),3.32 µM
8,O=c1c(-c2nc3ccccc3s2)cccn1Cc1ccccc1,0.945 µM
9,O=C(N=C1N=C2C=CC=CN2Cc2ccccc21)c1ccc(S(=O)(=O)N2CCCC2)cc1,30.1 µM
10,Cc1ccc(CNc2nc(C)cs2)cc1,1.05 µM
11,O=C(Nc1ccccc1)Nc1ccc2nnsc2c1,13.1 µM
12,COc1ccc(OCc2cc(C(=O)NC(C)c3cnn(C)c3)no2)c(Cl)c1 (centres undefined),12.3 µM
13,CC1CCC(NC(=O)c2ccc(NS(=O)(=O)c3ccc4[nH]c(=O)[nH]c4c3)cc2)CC1 (centres undefined),25.1 µM
14,Cn1c2ccccc2c(=O)c2cc(C#Cc3ccccn3)ccc21,> 35 µM (inactive)
15,C/C(Cl)=C/CSc1nn2c(=O)c3ccccc3nc2s1,13 µM
16,COC(=O)C(Cc1ccc(O)cc1)N1Cc2ccccc2C1=O (centres undefined),5.9 µM
17,C/C(=N\OCc1ccc(C#N)cc1)c1ccc(S(=O)(=O)N(C)C)cc1,> 35 µM (inactive)
18,CC(C)(C)C(=O)c1cnc(Nc2ccccc2Cl)s1,0.832 µM
19,Cc1ccc(C)c(NC(=O)c2cc(-c3cc(C)ccc3O)n[nH]2)c1,3.03 µM
20,C/C(=N\OC(=O)Nc1ccccc1)c1ccc(C)cc1,3.45 µM
21,COC(=O)Cc1ccc(OCc2ccc(Cl)nc2)cc1,4.13 µM
22,CCS(=O)(=O)c1ccc2oc(Nc3ccccc3C)nc2c1,3.65 µM

row,Structure (SMILES),AC40
1,Cc1cccc(OC(=O)c2sc3ncn(C)c(=O)c3c2C)c1,6.16 µM
2,CC(C)c1ccc(N=C2NN=C(c3cccs3)CS2)cc1,0.547 µM
3,CCC(=O)NCCc1nc2cc(NC(=O)c3ccc(Cl)cc3)ccc2n1C,0.755 µM
4,O=S(=O)(c1cccs1)N1CCCc2cccc(O)c21,7.11 µM
5,O=C1/C(=C/c2cccnc2)CCc2c1[nH]c1ccccc21,6.49 µM
6,Nc1ccc(O)c2c(=O)cc(-c3ccccc3Cl)oc12,1.13 µM
7,CC(=O)c1sc(NC(=O)c2ccccc2F)nc1-c1ccccc1,3.02 µM
8,Cc1ccc(NC(=O)c2ccc3ccccc3n2)cc1S(=O)(=O)N(C)C,2.37 µM
9,O=C(NCCSc1ccccn1)c1ccc(Cl)cc1Cl,0.959 µM
10,COc1cc(/C=C/c2noc(-c3ccccc3O)n2)ccc1OC(C)=O,1.62 µM
11,O=C(Nc1ccc2ccccc2c1)c1cc(F)c(F)cc1Cl,1.86 µM
12,CN(N=O)c1ccc(CC2CCc3ccccc32)cc1 (centres undefined),12.6 µM
13,COc1cc(SC)ccc1C(=O)NCC1CCCCC1,14.4 µM
14,Cc1cc(Cl)ccc1OCc1cn2cccnc2n1,1.41 µM
15,Cc1ccc(-c2csc(NC(=O)c3ccc(Br)cc3)c2C(=O)O)cc1,6.1 µM
16,Cc1ccccc1-c1nc2cc(Cl)ccc2o1,8.56 µM
17,COc1ccc(C(=O)c2ccc(CC#N)s2)cc1,7.07 µM
18,COC(=O)c1cn(CC(=O)NCc2cccs2)c2ccccc12,9.32 µM
19,COc1ccc(C2=NN(c3ccccc3)C(c3ccc(OC)c(OC)c3)C2)cc1 (centres undefined),25.6 µM
20,C/C(=C\c1ccc(N)cc1)c1nc2ccccc2[nH]1,1.72 µM

# Reference: PubChem BioAssay AID540258 (Broad Institute, 2011)
